From patent US5349127A, “Expression of herbicide metabolizing cytochromes P450” (priority 1992, dated 1994)

Legend:
[1] = test system: S. griseolus ATCC 11796; assay: Percent conversion of herbicides by cultures (Example 16); format: in vitro ADME, Streptomyces griseolus; conditions: 3.0 mg herbicide in 25 ml broth; 24 hours
[2] = test system: S. griseolus PH2003 pCS325; assay: as above; format: in vitro ADME, Streptomyces griseolus; conditions: 3.0 mg herbicide in 25 ml broth; 24 hours
[3] = test system: S. lividans pCAO200SU2-FeS-A#11; assay: Sulfonylurea metabolism by washed cell suspension (Examples 11-12); format: in vitro ADME, Streptomyces lividans; conditions: for concentration in supernatant: substrate 10010
[4] = test system: transgenic Nicotiana tabacum cv. Xanthi plants; assay: In vitro pollen germination after spraying 10015 on tobacco with anther-specific P450SU1 (Example 28); format: in vivo
Method: Application of compound 10015 was as follows. The tapetal cells of the anther surround the developing pollen and are instrumental in supporting the development of mature pollen. Thus production of a toxin in the tapetal cells was expected to disrupt the development of normal mature pollen. The nontoxic compound 10015 was sprayed onto flowering transgenic plants that had anther-specific expression of P450SU1 mRNA. […] The 10015 was first dissolved in up to 0.8 ml of 0.01 N ammonium hydroxide and then diluted into AGWT (90.2% Acetone:4.8% Glycerol:4.8% Water:0.24% Tween 20 by volume). Little effect was seen when rates of less than 32 g/ha were applied. At 32 g/ha and above, effects were seen on the ability of pollen to germinate in vitro. Newly opened buds were collected at time intervals between four and 23 days after spraying. The anthers were removed and pollen was brushed into Brewbaker and Kwak medium (15% sucrose, 200 ppm calcium nitrate, 100 ppm boric acid). Growth of tubes from the pollen, indicating germination, was assessed after four hours of incubation by microscopic observation.

[5] = test system: transformed tobacco seedlings; assay: Tissue culture growth of transformed tobacco seed on 50 nM 10015 (Examples 22-23); format: in vivo, Nicotiana tabacum
Method: Growth medium was prepared from Murishige minimal organics medium (Gibco Laboratories, Grand Island, N.Y.), 8 g/l agar, supplemented with T vitamins (50 ppb biotin, 0.5 ppm pyridoxine HCl, 0.5 ppm thiamine HCl, 5 ppm nicotinic acid, 0.5 ppm folic acid, 2 ppm glycine, 100 ppm myo-inositol), sterilized and placed into sterile PlantCon plant tissue culture containers (Flow Laboratories, McLean, Va.). Tobacco seed obtained from the self-pollination of the primary transformants was surface sterilized by a treatment of not more than 30 min in 20% chlorine bleach, 0.1% sodium dodecyl sulfate, followed by rinsing in distilled water, and placed on the surface of the medium in the sterile containers. Following this treatment, the seed was allowed to germinate and grow under illumination (100 microeinsteins·m^-2 ·s^-1), at 22° C.
Because of the increased phytotoxicity of 10014 over that of 10015, plants grown in media containing 10015 should be growth inhibited if they contain an active cytochrome P450SU1. To test this, seeds of tobacco were grown in tissue culture media supplemented with 50 nM compound 10015, and the results are shown in Table 20.
This technique was used to analyze the progeny of plants transformed with both the gene for SU1 and FeS-B, and the results are shown in Table 21.
Plants transformed With the plasmids pSuFe31 and pSuFe41 were selected for high expression of P450SU1 and FeS-B mRNA by primer extension analysis as described in Example 19, and self pollinated to produce seed. This seed was germinated on medium containing 50 nM of compound 10015 and analyzed for sensitivity to this compound (indicating the presence of an active cytochrome P450SU1 enzyme) as in Example 22.

SMILES: CCOC(=O)c1ccccc1S(=O)(=O)NC(=O)Nc1nc(Cl)cc(OC)n1 [compound 10001, N-[(4-chloro-6-methoxy-pyrimidin-2-yl)aminocarbonyl]-2-ethoxycarbonylbenzenesulfonamide]
- Percent Conversion [1]: 100%
- Percent Conversion [2]: 100%

SMILES: COC(=O)c1ccccc1S(=O)(=O)NC(=O)Nc1nc(C)cc(C)n1 [compound 10010, N-[(4,6-dimethylpyrimidin-2-yl)aminocarbonyl]-2-methoxycarbonylbenzenesulfonamide]
- concentration in supernatant ([3]; 2 h): 90 µM
- concentration in supernatant ([3]; 4 h): 84 µM
- concentration in supernatant ([3]; 6 h): 72 µM
- metabolism compared with uninduced S. griseolus PH2001 ([3]; summary of Example 12): more readily than uninduced S. griseolus PH2001

SMILES: COc1cc(OC)nc(NC(=O)NS(=O)(=O)c2cccc3c2S(=O)(=O)N(C(C)C)C3)n1 [compound 10015]
- pollen germination in vitro ([4]; A-T-SU1 plants 41A and 56 A, 32 g/ha, 7 to 11 days after application): 0%
- pollen germination in vitro ([4]; A-T-SU1 plants 41A and 56 A, 32 g/ha, through 18 days on one plant, 13 days on the other): less than 0.1%
- pollen germination in vitro ([4]; plant 28A, 100 g/ha, 21 days): less than 0.1%
- pollen germination in vitro ([4]; plant 38A, 100 g/ha, 14 days, varying between buds): 1-25%
- Compound 10015 Sensitive (plants demonstrating result/total plants) ([5]; AGS502 (Control)): 0/9
- Number 10015 Resistant ([5]; AGS502 (Control)): 32
- Number 10015 Sensitive ([5]; AGS502 (Control)): 0
- Ratio Sensitive/Resistant ([5]; AGS502 (Control)): 0
- Compound 10015 Sensitive (plants demonstrating result/total plants) ([5]; SuFe21.2): 7/9
- Compound 10015 Sensitive (plants demonstrating result/total plants) ([5]; SuFe21.5): 8/9
- Compound 10015 Sensitive (plants demonstrating result/total plants) ([5]; SuFe21.6): 7/9
- Compound 10015 Sensitive (plants demonstrating result/total plants) ([5]; SuFe21.7): 5/7
- Compound 10015 Sensitive (plants demonstrating result/total plants) ([5]; SuFe21.8): 10/10
- Number 10015 Resistant ([5]; SuFe31.13): 4
- Number 10015 Sensitive ([5]; SuFe31.13): 12
- Ratio Sensitive/Resistant ([5]; SuFe31.13): 3.0
- Number 10015 Resistant ([5]; SuFe31.28): 5
- Number 10015 Sensitive ([5]; SuFe31.28): 10
- Ratio Sensitive/Resistant ([5]; SuFe31.28): 2.0
- Number 10015 Resistant ([5]; SuFe41.34): 32
- Number 10015 Sensitive ([5]; SuFe41.34): 0
- Ratio Sensitive/Resistant ([5]; SuFe41.34): 0
- Number 10015 Resistant ([5]; SuFe41.37): 8
- Number 10015 Sensitive ([5]; SuFe41.37): 24
- Ratio Sensitive/Resistant ([5]; SuFe41.37): 3.0
- Number 10015 Resistant ([5]; SuFe41.56): 32
- Number 10015 Sensitive ([5]; SuFe41.56): 0
- Ratio Sensitive/Resistant ([5]; SuFe41.56): 0
- Number 10015 Resistant ([5]; SuFe41.60): 15
- Number 10015 Sensitive ([5]; SuFe41.60): 0
- Ratio Sensitive/Resistant ([5]; SuFe41.60): 0
- Compound 10015 Sensitive (plants demonstrating result/total plants) ([5]; SuFell.1): 2/9
- Compound 10015 Sensitive (plants demonstrating result/total plants) ([5]; SuFell.11): 0/9
- Compound 10015 Sensitive (plants demonstrating result/total plants) ([5]; SuFell.3): 0/8
- Compound 10015 Sensitive (plants demonstrating result/total plants) ([5]; SuFell.4): 0/10
- Compound 10015 Sensitive (plants demonstrating result/total plants) ([5]; SuFell.7): 0/9
- Compound 10015 Sensitive (plants demonstrating result/total plants) ([5]; SuFell.8): 1/10
